Where “and” joins values, the source holds several entries; their conditions need not be identical. Identical values can stand only once. Inconclusive results and toxic doses are left out. Rule as the data show it: active = T/C of 150% or more; inactive = T/C below 125%.
Test system: L1210 leukemia ip in BDF1 mice, survival T/C
Assay: NCI In Vivo Anticancer Drug Screen. Data for tumor model L1210 Leukemia (intraperitoneal) in B6D2F1 (BDF1) mice
Details: endpoint: mean survival time, higher = longer survival
Outline: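 Tumor cells were implanted, animals were treated, and survival was followed. The result divides the treated measurement by the vehicle-control measurement.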

[1] = dose: 50.0 mg/kg/injection, schedule: Q01DX001 (ip), vehicle: Klucel (hydroxypropylcellulose) (HPC)
[2] = dose: 100.0 mg/kg/injection, schedule: Q01DX001 (ip), vehicle: Klucel (hydroxypropylcellulose) (HPC)
[3] = dose: 200.0 mg/kg/injection, schedule: Q01DX001 (ip), vehicle: Klucel (hydroxypropylcellulose) (HPC)
[4] = dose: 100.0 mg/kg/injection, schedule: Q01DX009 (ip), vehicle: Klucel (hydroxypropylcellulose) (HPC)
[5] = dose: 100.0 mg/kg/injection, schedule: Q04DX003 (ip), vehicle: Klucel (hydroxypropylcellulose) (HPC)
[6] = dose: 200.0 mg/kg/injection, schedule: Q01DX009 (ip), vehicle: Klucel (hydroxypropylcellulose) (HPC)
[7] = dose: 200.0 mg/kg/injection, schedule: Q04DX003 (ip), vehicle: Klucel (hydroxypropylcellulose) (HPC)
[8] = dose: 400.0 mg/kg/injection, schedule: Q01DX001 (ip), vehicle: Klucel (hydroxypropylcellulose) (HPC)
[9] = dose: 400.0 mg/kg/injection, schedule: Q04DX003 (ip), vehicle: Klucel (hydroxypropylcellulose) (HPC)
[10] = dose: 100.0 mg/kg/injection, schedule: Q01DX001 (ip), vehicle: saline
[11] = dose: 200.0 mg/kg/injection, schedule: Q01DX001 (ip), vehicle: saline
[12] = dose: 400.0 mg/kg/injection, schedule: Q01DX001 (ip), vehicle: saline
[13] = dose: 100.0 mg/kg/injection, schedule: Q04DX003 (ip), vehicle: saline with Tween-80
[14] = dose: 200.0 mg/kg/injection, schedule: Q04DX003 (ip), vehicle: saline with Tween-80
[15] = dose: 400.0 mg/kg/injection, schedule: Q04DX003 (ip), vehicle: saline with Tween-80
[16] = dose: 100.0 mg/kg/injection, schedule: Q04DX002 (ip), vehicle: Klucel (hydroxypropylcellulose) (HPC)
[17] = dose: 200.0 mg/kg/injection, schedule: Q04DX002 (ip), vehicle: Klucel (hydroxypropylcellulose) (HPC)
[18] = dose: 400.0 mg/kg/injection, schedule: Q04DX002 (ip), vehicle: Klucel (hydroxypropylcellulose) (HPC)
[19] = dose: 75.0 mg/kg/injection, schedule: Q04DX003 (ip), vehicle: saline
[20] = dose: 150.0 mg/kg/injection, schedule: Q04DX003 (ip), vehicle: saline
[21] = dose: 75.0 mg/kg/injection, schedule: Q01DX001 (ip), vehicle: saline
[22] = dose: 150.0 mg/kg/injection, schedule: Q01DX001 (ip), vehicle: saline

Measured: T/C

CCSc1nc(C2NC(C(=O)O)CS2)cc(=O)[nH]1 (stereo not given)
inactive: [1] 98 % of control | [2] 98 % of control | [3] 97 % of control

CC12CCC(O)CC1CCC1C3CC/C(=C\c4ccco4)C(=O)C3(CCC#N)CCC12 (stereo not given)
inactive: dose: 100.0 mg/kg/injection, schedule: Q01DX001 (sc), vehicle: steriod suspending solution 108 % of control | dose: 200.0 mg/kg/injection, schedule: Q01DX001 (sc), vehicle: steriod suspending solution 106 % of control | dose: 400.0 mg/kg/injection, schedule: Q01DX001 (sc), vehicle: steriod suspending solution 106 % of control

CCCCSc1ncnc2nc[nH]c12
inactive: dose: 75.0 mg/kg/injection, schedule: Q01DX001 (ip), vehicle: other 103 % of control | dose: 150.0 mg/kg/injection, schedule: Q01DX001 (ip), vehicle: other 95 % of control | dose: 300.0 mg/kg/injection, schedule: Q01DX001 (ip), vehicle: other 106 % of control

CCOC(=O)c1ccc(N=NN(C)CC(C)C)cc1
inactive: [2] 107 % of control | [4] 112 % of control | [5] 105 % of control | [3] 104 % of control | [6] 122 % of control | [7] 107 % of control | [8] 107 % of control | [9] 108 % of control

CN=C1CC2CCC(C2)C1(O)c1ccccc1 (stereo not given)
inactive: [10] 101 % of control

COC1(OC)C2(Cl)CC(=O)C3CC(=O)C3C1(Cl)C(Cl)=C2Cl (stereo not given)
inactive: dose: 50.0 mg/kg/injection, schedule: Q01DX009 (ip), vehicle: Klucel (hydroxypropylcellulose) (HPC) 92 % of control | [10] 100 % of control | [4] 94 % of control | [11] 94 % of control | [6] 102 % of control | [12] 101 % of control

Nc1ccc(Cl)cc1-c1nc2ccccc2[nH]1
inactive: [13] 91 % of control | [14] 95 % of control | [15] 91 % of control

O=C(O)c1cccc2c1C(=O)c1c(Cl)cccc1C2=O
inactive: [16] 99 % of control | [17] 99 % of control | [18] 99 % of control

Nc1ccc(N=Nc2cc(Cl)ccc2Cl)c(N)n1
inactive: dose: 50.0 mg/kg/injection, schedule: Q01DX001 (ip), vehicle: other 103 % of control | dose: 100.0 mg/kg/injection, schedule: Q01DX001 (ip), vehicle: other 86 % of control | dose: 200.0 mg/kg/injection, schedule: Q01DX001 (ip), vehicle: other 92 % of control | dose: 400.0 mg/kg/injection, schedule: Q01DX001 (ip), vehicle: other 92 % of control

CS(=O)(=O)NC(=O)C[P+](c1ccccc1)(c1ccccc1)c1ccccc1
inactive: [10] 96 % of control | [11] 89 % of control | [12] 98 % of control

CC(C(=O)c1ccccc1)C(c1ccccc1)N1CCOCC1 (stereo not given)
inactive: [13] 106 % of control | [14] 101 % of control | [15] 100 % of control

CC1CC(CN2c3ccccc3Sc3ccccc32)C(C)N1C (stereo not given)
inactive: dose: 12.5 mg/kg/injection, schedule: Q04DX003 (ip), vehicle: acetone 101 % of control | dose: 25.0 mg/kg/injection, schedule: Q04DX003 (ip), vehicle: acetone 120 % of control

Cc1ccc(/C=C2\CC(C)(C)c3ccccc3C2=O)cc1
inactive: [14] 100 % of control | [15] 93 % of control

CC(C)(C)CC(C)(C)c1ccc(OCCOc2ccccc2N)cc1
inactive: [13] 94 % of control | [14] 95 % of control | [15] 97 % of control

CN(C)c1ccc(CN2CCCN(Cc3ccc(N(C)C)cc3)C2c2ccc(N(CCCl)CCCl)cc2)cc1
inactive: [5] 102 % of control | [7] 104 % of control | [9] 100 % of control

O=C(O)C(=O)Nc1ncccc1C(=O)O
inactive: [16] 114 % of control | [17] 100 % of control | [18] 103 % of control

COc1ccc(OC)c(NC(=O)SCCSC(=O)Nc2cc(OC)ccc2OC)c1
inactive: [4] 92 % of control | [6] 91 % of control | dose: 400.0 mg/kg/injection, schedule: Q01DX009 (ip), vehicle: Klucel (hydroxypropylcellulose) (HPC) 92 % of control

O=C(N=Nc1c(NNC(=O)c2ccc([N+](=O)[O-])cc2)c(O)c2ccccc2c1O)c1ccc([N+](=O)[O-])cc1
inactive: [19] 102 % of control | [20] 89 % of control | dose: 300.0 mg/kg/injection, schedule: Q04DX003 (ip), vehicle: saline 94 % of control

Cc1ccc(C2C(C(=O)c3ccccc3)N2Cc2ccccc2)cc1 (stereo not given)
inactive: [2] 98 % of control | [3] 95 % of control

CCCCCCCCCCCCN1C(C)=CS/C1=C\C=C\c1scc(C)[n+]1CCCCCCCCCCCC
inactive: dose: 0.78 mg/kg/injection, schedule: Q01DX009 (ip), vehicle: saline with Tween-80 103 % of control | dose: 1.56 mg/kg/injection, schedule: Q01DX009 (ip), vehicle: saline with Tween-80 117 % of control | dose: 6.25 mg/kg/injection, schedule: Q01DX009 (ip), vehicle: saline with Tween-80 90 % of control

NCCSC(O)(C(F)(F)F)C(F)(F)F
inactive: dose: 37.5 mg/kg/injection, schedule: Q04DX003 (ip), vehicle: saline 103 % of control | [21] 113 % of control and 101 % of control | [19] 102 % of control and 103 % of control | [22] 106 % of control and 109 % of control | [20] 104 % of control and 100 % of control

Cc1cc(C)c(Sc2ccc([N+](=O)[O-])c3ccccc23)c(C)c1
inactive: [2] 102 % of control | [5] 94 % of control | [3] 98 % of control | [7] 100 % of control | [8] 95 % of control | [9] 90 % of control

CSc1ccccc1NC(=O)c1cccs1
inactive: [16] 89 % of control | [17] 96 % of control | [18] 93 % of control

O=S1(=O)CC(N2CCCCC2)C1CN1CCCCC1 (stereo not given)
inactive: [21] 97 % of control | [22] 89 % of control

CC(=O)NCC(O)c1ccccc1 (stereo not given)
inactive: [10] 94 % of control | [11] 100 % of control | [12] 91 % of control

CC(=O)Nc1nc(C=O)c(CCCCc2ccccc2)c(=O)[nH]1
inactive: dose: 80.0 mg/kg/injection, schedule: Q01DX001 (ip), vehicle: Klucel (hydroxypropylcellulose) (HPC) 102 % of control | dose: 160.0 mg/kg/injection, schedule: Q01DX001 (ip), vehicle: Klucel (hydroxypropylcellulose) (HPC) 107 % of control | dose: 320.0 mg/kg/injection, schedule: Q01DX001 (ip), vehicle: Klucel (hydroxypropylcellulose) (HPC) 107 % of control

C/C(CCCCl)=N/NC(N)=S
inactive: dose: 6.25 mg/kg/injection, schedule: Q01DX009 (ip), vehicle: saline 98 % of control | dose: 6.25 mg/kg/injection, schedule: Q04DX003 (ip), vehicle: saline with Tween-80 98 % of control | dose: 12.5 mg/kg/injection, schedule: Q01DX009 (ip), vehicle: saline 107 % of control | dose: 12.5 mg/kg/injection, schedule: Q04DX003 (ip), vehicle: saline with Tween-80 92 % of control | dose: 25.0 mg/kg/injection, schedule: Q04DX003 (ip), vehicle: saline with Tween-80 90 % of control | dose: 100.0 mg/kg/injection, schedule: Q01DX001 (ip), vehicle: acetone 100 % of control | dose: 200.0 mg/kg/injection, schedule: Q01DX001 (ip), vehicle: acetone 90 % of control

O=CNC(Cc1ccc(O)cc1)C(=O)O (stereo not given)
inactive: dose: 100.0 mg/kg/injection, schedule: Q04DX003 (ip), vehicle: saline 95 % of control | dose: 200.0 mg/kg/injection, schedule: Q04DX003 (ip), vehicle: saline 91 % of control | dose: 400.0 mg/kg/injection, schedule: Q04DX003 (ip), vehicle: saline 93 % of control

CC(=O)N[Si](C)(C)C
inactive: [10] 102 % of control | [11] 100 % of control | [12] 98 % of control

NNc1cc(NN)c2[nH]cnc2n1
inactive: dose: 25.0 mg/kg/injection, schedule: Q01DX001 (ip), vehicle: Klucel (hydroxypropylcellulose) (HPC) 100 % of control | dose: 25.0 mg/kg/injection, schedule: Q04DX003 (ip), vehicle: Klucel (hydroxypropylcellulose) (HPC) 102 % of control | [1] 93 % of control | dose: 50.0 mg/kg/injection, schedule: Q04DX003 (ip), vehicle: Klucel (hydroxypropylcellulose) (HPC) 105 % of control | [2] 100 % of control and 108 % of control | [5] 112 % of control
